Results reported in the supplement of paper PMC10307832.

Assays:
Assay in all cases: relative viability (nuclei count vs DMSO), 5 days (fraction); higher = more cells survive
Carboplatin + OSI-027 = compound: C1CC(C1)(C(=O)O)C(=O)O.[NH2-].[NH2-].[Pt+2] [Carboplatin] + COc1cccc2cc(-c3nc([C@H]4CC[C@H](C(=O)O)CC4)n4ncnc(N)c34)[nH]c12 [OSI-027] (partner 0.5 µM)
Method in brief: (§1)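 Five library-drug doses in √10 steps were combined with a fixed anchor-drug dose, or a single drug was given alone, by pin tool to lung cancer cell lines in 1536-well plates the day after seeding. Nuclei were stained and counted after 5 days. Relative viability is the nuclei count in treated wells over that in vehicle wells, taken as the median of duplicate plates.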

Carboplatin + Decitabine = compound: C1CC(C1)(C(=O)O)C(=O)O.[NH2-].[NH2-].[Pt+2] [Carboplatin] + Nc1ncn([C@H]2C[C@H](O)[C@@H](CO)O2)c(=O)n1 [Decitabine] (partner 2 µM)
Method in brief: as §1

GSK126 + Navitoclax = compound: CC[C@H](C)N1C=C(C2=C(C=C(C=C21)C3=CN=C(C=C3)N4CCNCC4)C(=O)NCC5=C(C=C(NC5=O)C)C)C [GSK126] + CC1(C)CCC(c2ccc(Cl)cc2)=C(CN2CCN(c3ccc(C(=O)NS(=O)(=O)c4ccc(N[C@H](CCN5CCOCC5)CSc5ccccc5)c(S(=O)(=O)C(F)(F)F)c4)cc3)CC2)C1 [Navitoclax] (partner 0.5 µM)
Method in brief: as §1

GSK126 + AZD7762 = compound: CC[C@H](C)N1C=C(C2=C(C=C(C=C21)C3=CN=C(C=C3)N4CCNCC4)C(=O)NCC5=C(C=C(NC5=O)C)C)C [GSK126] + NC(=O)Nc1cc(-c2cccc(F)c2)sc1C(=O)N[C@H]1CCCNC1 [AZD7762] (partner 0.2 µM)
Method in brief: as §1

| Cell Line | relative viability (Carboplatin + OSI-027; first compound 0.08 µM) | relative viability (Carboplatin + OSI-027; first compound 0.253 µM) | relative viability (Carboplatin + OSI-027; first compound 0.8 µM) | relative viability (Carboplatin + OSI-027; first compound 2.53 µM) | relative viability (Carboplatin + OSI-027; first compound 8 µM) | relative viability (Carboplatin + Decitabine; first compound 0.08 µM) | relative viability (Carboplatin + Decitabine; first compound 0.253 µM) | relative viability (Carboplatin + Decitabine; first compound 0.8 µM) | relative viability (Carboplatin + Decitabine; first compound 2.53 µM) | relative viability (Carboplatin + Decitabine; first compound 8 µM) | relative viability (GSK126 + Navitoclax; first compound 0.08 µM) | relative viability (GSK126 + Navitoclax; first compound 0.253 µM) | relative viability (GSK126 + Navitoclax; first compound 0.8 µM) | relative viability (GSK126 + Navitoclax; first compound 2.53 µM) | relative viability (GSK126 + Navitoclax; first compound 8 µM) | relative viability (GSK126 + AZD7762; first compound 0.08 µM) | relative viability (GSK126 + AZD7762; first compound 0.253 µM) | relative viability (GSK126 + AZD7762; first compound 0.8 µM) | relative viability (GSK126 + AZD7762; first compound 2.53 µM) | relative viability (GSK126 + AZD7762; first compound 8 µM) |
| --- | --- | --- | --- | --- | --- | --- | --- | --- | --- | --- | --- | --- | --- | --- | --- | --- | --- | --- | --- | --- |
| NCI-H2405 | 0.683 | 0.624 | 0.624 | 0.642 | 0.56 | 0.705 | 0.784 | 0.809 | 0.659 | 0.442 | 0.76 | 0.708 | 0.805 | 0.895 | 0.552 | 0.794 | 0.603 | 0.695 | 0.715 | 0.611 |
| HOP-62 | 0.905 | 0.808 | 0.823 | 0.777 | 0.726 | 0.234 | 0.223 | 0.243 | 0.195 | 0.214 | 1.01 | 1.06 | 1.06 | 0.916 | 0.979 | 0.67 | 0.757 | 0.819 | 0.528 | 0.363 |
| NCI-H727 | 0.732 | 0.547 | 0.555 | 0.617 | 0.551 | 1.12 | 0.956 | 0.882 | 0.935 | 0.861 | 0.444 | 0.354 | 0.51 | 0.408 | 0.361 | 0.683 | 0.619 | 0.539 | 0.64 | 0.458 |
| PC-3 [JPC-3] | 0.88 | 0.821 | 0.754 | 0.729 | 0.588 | 0.835 | 0.75 | 0.795 | 0.734 | 0.7 | 0.877 | 0.862 | 0.874 | 0.76 | 0.753 | 0.855 | 0.855 | 0.957 | 0.871 | 0.766 |
| NCI-H2347 | 0.42 | 0.421 | 0.409 | 0.423 | 0.324 | 0.615 | 0.428 | 0.621 | 0.653 | 0.552 | 1.03 | 0.679 | 0.688 | 0.799 | 0.772 | 0.757 | 0.707 | 0.711 | 0.723 | 0.783 |
| NCI-H838 | 0.468 | 0.32 | 0.439 | 0.364 | 0.391 | 0.479 | 0.492 | 0.425 | 0.412 | 0.386 | 1.15 | 1.18 | 1.09 | 1.1 | 0.978 | 1.1 | 0.932 | 0.873 | 0.916 | 0.857 |
| HCC-44 | 0.53 | 0.572 | 0.5 | 0.484 | 0.292 | 0.968 | 0.915 | 0.949 | 0.923 | 0.863 | 0.963 | 0.981 | 0.853 | 0.906 | 1.01 | 1.04 | 1.12 | 0.99 | 0.983 | 1.01 |
| HCC-78 | 0.433 | 0.368 | 0.341 | 0.379 | 0.375 | 0.659 | 0.61 | 0.709 | 0.656 | 0.73 | 1.01 | 0.711 | 0.832 | 0.741 | 0.804 | 0.675 | 0.652 | 0.604 | 0.832 | 0.736 |
| A-427 | 0.449 | 0.531 | 0.479 | 0.499 | 0.39 | 0.593 | 0.562 | 0.571 | 0.527 | 0.512 | 1.04 | 1 | 0.836 | 0.959 | 0.845 | 0.82 | 0.703 | 0.667 | 0.825 | 0.542 |
| NCI-H460 | 0.778 | 0.708 | 0.631 | 0.332 | 0.0817 | 0.461 | 0.476 | 0.481 | 0.298 | 0.149 | 1.14 | 1.17 | 1.17 | 1.1 | 1.18 | 0.616 | 0.5 | 0.594 | 0.538 | 0.546 |
| LK-2 | 0.262 | 0.191 | 0.21 | 0.184 | 0.226 | 0.287 | 0.33 | 0.279 | 0.289 | 0.335 | 0.957 | 0.772 | 0.819 | 0.789 | 0.756 | 0.402 | 0.364 | 0.401 | 0.623 | 0.293 |
| NCI-H2085 | 0.719 | 0.849 | 0.783 | 0.64 | 0.628 | 0.548 | 0.57 | 0.506 | 0.544 | 0.474 | 1.16 | 1.12 | 1.19 | 1.09 | 1.19 | 1.03 | 0.973 | 0.927 | 0.907 | 0.957 |
| NCI-H2170 | 0.715 | 0.723 | 0.86 | 0.783 | 0.605 | 0.507 | 0.476 | 0.465 | 0.428 | 0.343 | 0.623 | 0.607 | 0.575 | 0.632 | 0.606 | 0.951 | 0.966 | 0.823 | 0.86 | 0.815 |
| LC-2-ad | 0.877 | 0.825 | 0.778 | 0.696 | 0.404 | 0.753 | 0.93 | 0.708 | 0.776 | 0.64 | 0.468 | 0.383 | 0.506 | 0.477 | 0.484 | 0.851 | 0.866 | 0.858 | 0.953 | 0.92 |
| NCI-H322M | 0.544 | 0.503 | 0.599 | 0.506 | 0.408 | 0.74 | 0.723 | 0.711 | 0.763 | 0.62 | 1.19 | 1.35 | 1.11 | 1.22 | 1.17 | 0.538 | 0.531 | 0.536 | 0.647 | 0.53 |
| LCLC-97TM1 | 0.481 | 0.615 | 0.594 | 0.554 | 0.474 | 0.299 | 0.206 | 0.208 | 0.218 | 0.191 | 0.587 | – | 0.379 | 0.525 | 0.798 | 0.307 | 0.312 | 0.228 | 0.267 | 0.24 |
